Results as given in ChEMBL document CHEMBL1177790, “Activity of substituted thiophene sulfonamides against malarial and mammalian cyclin dependent protein kinases” (Bioorg Med Chem Lett, 2010).

target: T1, Protein kinase Pfmrk (Plasmodium falciparum, UniProt P90584); assay: Inhibition of His6x-tagged Plasmodium falciparum Pfmrk expressed in Escherichia coli by microtiter plate scintillation counting; conditions: not given
T1 sequence (P90584 whole entry): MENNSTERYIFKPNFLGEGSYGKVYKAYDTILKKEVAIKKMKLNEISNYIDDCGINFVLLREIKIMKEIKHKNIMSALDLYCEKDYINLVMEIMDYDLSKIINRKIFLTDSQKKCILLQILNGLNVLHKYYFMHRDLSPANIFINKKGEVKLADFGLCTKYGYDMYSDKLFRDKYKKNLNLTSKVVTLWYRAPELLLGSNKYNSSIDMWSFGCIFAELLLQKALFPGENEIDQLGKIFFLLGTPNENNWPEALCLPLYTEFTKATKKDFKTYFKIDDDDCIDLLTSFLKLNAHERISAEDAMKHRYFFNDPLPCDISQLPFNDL

Row | IC50 | Compound
1 | 0.6 µM | N#CC(NCC(O)c1ccccc1)c1ccc(Cl)c(Cl)c1 (stereo not drawn)
2 | 15.9 µM | Cc1ccc(NS(=O)(=O)c2ccc(Br)cc2)cc1Cl
3 | 20.7 µM | Cc1cccc(C)c1N(C(=O)CCl)S(=O)(=O)c1cc(Cl)sc1Cl
4 | 0.8 µM | O=C(CBr)N(c1ccc(Cl)cc1)S(=O)(=O)c1cc(Cl)sc1Cl
5 | 45.4 µM | Cc1ccc(Cl)cc1NS(=O)(=O)c1cc(Cl)ccc1Cl
6 | 13.1 µM | O=S(=O)(Nc1cccc(C(F)(F)F)c1)c1ccc(Cl)cc1
7 | 29.7 µM | O=S(=O)(c1cc(Cl)sc1Cl)N(SC(Cl)(Cl)Cl)c1ccccc1
8 | 19.7 µM | O=S(=O)(Nc1ccc(Cl)cc1SC(Cl)(Cl)Cl)c1cc(Cl)sc1Cl
9 | 48.4 µM | COc1ccc(S(=O)(=O)Nc2cccc(C(F)(F)F)c2)cc1
10 | 14.9 µM | O=S(=O)(Nc1ccccc1)c1cc(Cl)sc1Cl
11 | 11 µM | Cc1cc(Cl)ccc1NS(=O)(=O)c1cc(Cl)ccc1Cl
12 | 333 µM | O=S(=O)(Nc1cc(Cl)cc(Cl)c1)c1cc(Cl)sc1Cl
13 | 31.5 µM | O=S(=O)(Nc1ccc(Cl)cc1)c1c(Cl)sc(Cl)c1Cl
14 | 127 µM | Cc1ccc(N(C(=O)C(Cl)Cl)S(=O)(=O)c2cc(Cl)sc2Cl)cc1

Further lines, the molecule ahead of its results:

Row | Compound | IC50
15 | O=C(NNC(=O)c1ccccc1F)c1ccc2ccccc2c1 | 0.4 µM
16 | Cc1ccccc1NC(=O)NC(=O)c1ccccc1Cl | 0.2 µM
17 | O=S(=O)(Nc1ccc(C(F)(F)F)cc1)c1ccc(C(F)(F)F)cc1 | 16.5 µM
18 | NS(=O)(=O)c1cc([N+](=O)[O-])c(Cl)s1 | 17.4 µM
19 | Cc1ccc(N(C(=O)CCl)S(=O)(=O)c2c(Cl)sc(Cl)c2Cl)cc1 | 40.1 µM
20 | O=C(CBr)N(c1ccccc1)S(=O)(=O)c1cc(Cl)sc1Cl | 0.6 µM
21 | O=S(=O)(Nc1cccc(C(F)(F)F)c1)c1cc(Cl)c(Cl)cc1Cl | 0.6 µM
22 | Cc1ccc(NS(=O)(=O)c2cc(Cl)sc2Cl)cc1 | 0.6 µM
23 | Cc1cc(C)c(NS(=O)(=O)c2ccc(Br)cc2)c(C)c1NS(=O)(=O)c1ccc(Br)cc1 | 50.2 µM
24 | Cc1ccc(Cl)cc1S(=O)(=O)Nc1ccc(Cl)c(Cl)c1 | 15.1 µM
25 | Cc1ccc(N(SC(Cl)(Cl)Cl)S(=O)(=O)c2cc(Cl)sc2Cl)cc1 | 0.3 µM

target: Cyclin-dependent kinase 7/ cyclin H (Homo sapiens, UniProt P50613); assay: Inhibition of human CDK7/Cyclin H/MAT1; assay type: protein-complex assay; conditions: not given
Sequence (P51946 whole entry): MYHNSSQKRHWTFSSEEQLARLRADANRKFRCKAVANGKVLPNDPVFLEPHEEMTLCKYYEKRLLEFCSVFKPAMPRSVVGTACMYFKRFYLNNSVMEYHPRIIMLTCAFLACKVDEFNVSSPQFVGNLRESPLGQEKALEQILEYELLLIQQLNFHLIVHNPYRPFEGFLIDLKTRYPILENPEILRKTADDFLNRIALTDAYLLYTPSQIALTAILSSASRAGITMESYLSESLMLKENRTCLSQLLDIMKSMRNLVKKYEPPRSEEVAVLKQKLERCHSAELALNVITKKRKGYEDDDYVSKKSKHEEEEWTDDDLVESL
Sequence (P50613 whole entry): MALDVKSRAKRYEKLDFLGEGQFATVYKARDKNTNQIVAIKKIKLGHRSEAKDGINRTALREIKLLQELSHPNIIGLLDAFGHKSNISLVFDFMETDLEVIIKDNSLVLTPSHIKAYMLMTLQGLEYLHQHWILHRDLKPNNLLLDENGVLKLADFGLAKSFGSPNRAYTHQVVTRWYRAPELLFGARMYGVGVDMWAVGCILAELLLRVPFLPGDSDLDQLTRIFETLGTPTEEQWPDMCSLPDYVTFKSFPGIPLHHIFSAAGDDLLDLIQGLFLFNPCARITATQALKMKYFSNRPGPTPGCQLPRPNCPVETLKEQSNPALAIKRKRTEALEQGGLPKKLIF

Row | Compound | IC50
26 | O=C(CBr)N(c1ccccc1)S(=O)(=O)c1cc(Cl)sc1Cl | 33400 nM
27 | O=S(=O)(Nc1cccc(C(F)(F)F)c1)c1cc(Cl)c(Cl)cc1Cl | 200 nM
28 | Cc1ccc(NS(=O)(=O)c2cc(Cl)sc2Cl)cc1 | 800 nM
29 | Cc1ccc(Cl)cc1S(=O)(=O)Nc1ccc(Cl)c(Cl)c1 | 400 nM
30 | Cc1ccc(N(SC(Cl)(Cl)Cl)S(=O)(=O)c2cc(Cl)sc2Cl)cc1 | 700 nM

target: CDK6/cyclin D1 (Homo sapiens, UniProt Q00534); assay: Inhibition of human CDK6/Cyclin D1; assay type: protein-complex assay; conditions: not given
Sequence (P24385 whole entry): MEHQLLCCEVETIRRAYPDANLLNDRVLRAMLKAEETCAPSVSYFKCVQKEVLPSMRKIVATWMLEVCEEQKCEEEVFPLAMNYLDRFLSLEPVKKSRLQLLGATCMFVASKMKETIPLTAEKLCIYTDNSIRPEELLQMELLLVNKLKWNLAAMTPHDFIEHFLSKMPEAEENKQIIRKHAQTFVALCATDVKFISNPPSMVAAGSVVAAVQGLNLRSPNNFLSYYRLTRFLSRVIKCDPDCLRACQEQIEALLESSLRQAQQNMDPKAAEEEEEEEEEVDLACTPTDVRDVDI
Sequence (Q00534 whole entry): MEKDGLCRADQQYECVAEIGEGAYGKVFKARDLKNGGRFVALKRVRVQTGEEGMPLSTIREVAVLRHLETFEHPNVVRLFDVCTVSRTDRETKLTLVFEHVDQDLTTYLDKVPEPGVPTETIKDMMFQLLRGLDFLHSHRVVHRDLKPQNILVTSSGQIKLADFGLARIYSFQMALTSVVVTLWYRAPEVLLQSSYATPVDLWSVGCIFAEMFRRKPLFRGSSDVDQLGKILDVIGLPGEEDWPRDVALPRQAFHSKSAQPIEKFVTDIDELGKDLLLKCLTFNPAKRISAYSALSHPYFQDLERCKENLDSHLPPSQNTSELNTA

Row | Compound | IC50
31 | O=C(CBr)N(c1ccccc1)S(=O)(=O)c1cc(Cl)sc1Cl | 34.9 µM
32 | O=S(=O)(Nc1cccc(C(F)(F)F)c1)c1cc(Cl)c(Cl)cc1Cl | 58.8 µM
33 | Cc1ccc(NS(=O)(=O)c2cc(Cl)sc2Cl)cc1 | 51.3 µM
34 | Cc1ccc(Cl)cc1S(=O)(=O)Nc1ccc(Cl)c(Cl)c1 | 110 µM
35 | Cc1ccc(N(SC(Cl)(Cl)Cl)S(=O)(=O)c2cc(Cl)sc2Cl)cc1 | 18 µM

target: Cyclin-dependent kinase 1/cyclin B1 (Homo sapiens, UniProt P06493); assay: Inhibition of human CDK1/cyclin B; assay type: protein-complex assay; conditions: not given
Sequence (P06493 whole entry): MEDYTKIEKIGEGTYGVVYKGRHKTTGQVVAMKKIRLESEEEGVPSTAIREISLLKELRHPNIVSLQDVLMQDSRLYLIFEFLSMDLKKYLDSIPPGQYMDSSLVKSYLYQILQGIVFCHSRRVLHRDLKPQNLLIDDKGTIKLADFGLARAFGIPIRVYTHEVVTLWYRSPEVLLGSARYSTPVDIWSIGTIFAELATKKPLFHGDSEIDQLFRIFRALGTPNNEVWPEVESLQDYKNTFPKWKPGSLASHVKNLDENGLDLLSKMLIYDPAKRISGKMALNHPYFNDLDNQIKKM
Sequence (P14635 whole entry, further chain): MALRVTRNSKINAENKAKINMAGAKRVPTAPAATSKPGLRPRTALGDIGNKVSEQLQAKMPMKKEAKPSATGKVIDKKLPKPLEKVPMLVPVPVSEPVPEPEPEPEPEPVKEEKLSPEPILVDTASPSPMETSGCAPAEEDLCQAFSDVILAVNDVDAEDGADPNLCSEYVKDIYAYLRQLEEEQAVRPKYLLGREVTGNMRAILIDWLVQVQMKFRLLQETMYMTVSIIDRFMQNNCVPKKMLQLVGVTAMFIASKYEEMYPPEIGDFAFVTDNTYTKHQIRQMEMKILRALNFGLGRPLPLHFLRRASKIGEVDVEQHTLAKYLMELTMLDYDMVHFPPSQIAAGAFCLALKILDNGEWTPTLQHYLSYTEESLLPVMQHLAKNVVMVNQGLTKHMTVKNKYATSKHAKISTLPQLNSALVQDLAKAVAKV

Row | Compound | IC50
36 | O=C(CBr)N(c1ccccc1)S(=O)(=O)c1cc(Cl)sc1Cl | 21.5 µM
37 | O=S(=O)(Nc1cccc(C(F)(F)F)c1)c1cc(Cl)c(Cl)cc1Cl | 0.1 µM
38 | Cc1ccc(NS(=O)(=O)c2cc(Cl)sc2Cl)cc1 | 49.3 µM
39 | Cc1ccc(Cl)cc1S(=O)(=O)Nc1ccc(Cl)c(Cl)c1 | 0.8 µM
40 | Cc1ccc(N(SC(Cl)(Cl)Cl)S(=O)(=O)c2cc(Cl)sc2Cl)cc1 | 10.5 µM

target: Cyclin-dependent kinase 2/cyclin A (Homo sapiens, UniProt P24941); assay: Inhibition of human CDK2/Cyclin A; assay type: protein-complex assay; conditions: not given

Row | Compound | IC50
41 | O=C(CBr)N(c1ccccc1)S(=O)(=O)c1cc(Cl)sc1Cl | 28.5 µM
42 | O=S(=O)(Nc1cccc(C(F)(F)F)c1)c1cc(Cl)c(Cl)cc1Cl | 10 µM
43 | Cc1ccc(NS(=O)(=O)c2cc(Cl)sc2Cl)cc1 | 31.4 µM
44 | Cc1ccc(Cl)cc1S(=O)(=O)Nc1ccc(Cl)c(Cl)c1 | 10.5 µM
45 | Cc1ccc(N(SC(Cl)(Cl)Cl)S(=O)(=O)c2cc(Cl)sc2Cl)cc1 | 11.5 µM

system: Plasmodium falciparum; assay: Antimalarial activity against chloroquine-resistant Plasmodium falciparum W2 assessed as inhibition of [3H]hypoxanthine incorporation after 24 hrs by microtiter plate scintillation counting; assay type: functional, organism-based; conditions: not given

Row | Compound | IC50
46 | O=C(CBr)N(c1ccccc1)S(=O)(=O)c1cc(Cl)sc1Cl | 23.3 µM
47 | O=S(=O)(Nc1cccc(C(F)(F)F)c1)c1cc(Cl)c(Cl)cc1Cl | 24.7 µM
48 | Cc1ccc(NS(=O)(=O)c2cc(Cl)sc2Cl)cc1 | 31 µM
49 | Cc1ccc(Cl)cc1S(=O)(=O)Nc1ccc(Cl)c(Cl)c1 | 17 µM
50 | Cc1ccc(N(SC(Cl)(Cl)Cl)S(=O)(=O)c2cc(Cl)sc2Cl)cc1 | 21.2 µM
51 | O=C1Nc2ccccc2/C1=C1/Nc2ccccc2C1=O [INDIRUBIN] | 1.1 µM
52 | OC(c1cc(C(F)(F)F)nc2c(C(F)(F)F)cccc12)C1CCCCN1 (stereo not drawn) [MEFLOQUINE] | 0.1 µM

system: RAW264.7; assay: Cytotoxicity against mouse RAW264.7 cells after 24 hrs by MTT assay; assay type: cell-based; conditions: RAW264.7, 24 h

Row | Compound | IC50
53 | O=C(CBr)N(c1ccccc1)S(=O)(=O)c1cc(Cl)sc1Cl | 89.5 µM
54 | O=S(=O)(Nc1cccc(C(F)(F)F)c1)c1cc(Cl)c(Cl)cc1Cl | 90.4 µM
55 | Cc1ccc(NS(=O)(=O)c2cc(Cl)sc2Cl)cc1 | 74.7 µM
56 | Cc1ccc(Cl)cc1S(=O)(=O)Nc1ccc(Cl)c(Cl)c1 | 76.6 µM
57 | Cc1ccc(N(SC(Cl)(Cl)Cl)S(=O)(=O)c2cc(Cl)sc2Cl)cc1 | 39.3 µM
58 | O=C1Cc2c([nH]c3ccc([N+](=O)[O-])cc23)-c2ccccc2N1 [ALSTERPAULLONE] | 2.2 µM
59 | O=C1Nc2ccccc2/C1=C1/Nc2ccccc2C1=O [INDIRUBIN] | 6.1 µM
60 | OC(c1cc(C(F)(F)F)nc2c(C(F)(F)F)cccc12)C1CCCCN1 (stereo not drawn) [MEFLOQUINE] | 6.5 µM

system: DU-145; assay: Cytotoxicity against human DU145 cells after 24 hrs by MTT assay; assay type: functional, cell-based; conditions: DU-145, 24 h

Row | Compound | IC50
61 | O=C(CBr)N(c1ccccc1)S(=O)(=O)c1cc(Cl)sc1Cl | 91 µM
62 | O=S(=O)(Nc1cccc(C(F)(F)F)c1)c1cc(Cl)c(Cl)cc1Cl | 44.2 µM
63 | Cc1ccc(NS(=O)(=O)c2cc(Cl)sc2Cl)cc1 | 81.1 µM
64 | Cc1ccc(Cl)cc1S(=O)(=O)Nc1ccc(Cl)c(Cl)c1 | 45.4 µM
65 | Cc1ccc(N(SC(Cl)(Cl)Cl)S(=O)(=O)c2cc(Cl)sc2Cl)cc1 | 53 µM
66 | O=C1Cc2c([nH]c3ccc([N+](=O)[O-])cc23)-c2ccccc2N1 [ALSTERPAULLONE] | 1.1 µM
67 | O=C1Nc2ccccc2/C1=C1/Nc2ccccc2C1=O [INDIRUBIN] | 6.8 µM
68 | OC(c1cc(C(F)(F)F)nc2c(C(F)(F)F)cccc12)C1CCCCN1 (stereo not drawn) [MEFLOQUINE] | 14.4 µM

system: LoVo; assay: Cytotoxicity against human LoVo cells after 24 hrs by MTT assay; assay type: functional, cell-based; conditions: not given

Row | Compound | IC50
69 | O=C(CBr)N(c1ccccc1)S(=O)(=O)c1cc(Cl)sc1Cl | 71.6 µM
70 | O=S(=O)(Nc1cccc(C(F)(F)F)c1)c1cc(Cl)c(Cl)cc1Cl | 65.1 µM
71 | Cc1ccc(NS(=O)(=O)c2cc(Cl)sc2Cl)cc1 | 69.3 µM
72 | Cc1ccc(Cl)cc1S(=O)(=O)Nc1ccc(Cl)c(Cl)c1 | 55 µM
73 | Cc1ccc(N(SC(Cl)(Cl)Cl)S(=O)(=O)c2cc(Cl)sc2Cl)cc1 | 70.3 µM
74 | O=C1Cc2c([nH]c3ccc([N+](=O)[O-])cc23)-c2ccccc2N1 [ALSTERPAULLONE] | < 1 µM
75 | O=C1Nc2ccccc2/C1=C1/Nc2ccccc2C1=O [INDIRUBIN] | 2.2 µM
76 | OC(c1cc(C(F)(F)F)nc2c(C(F)(F)F)cccc12)C1CCCCN1 (stereo not drawn) [MEFLOQUINE] | 7.9 µM

system: not listed separately; assay: Cytotoxicity against human Hs578 cells after 24 hrs by MTT assay; assay type: functional, cell-based; conditions: Hs578, 24 h

Row | Compound | IC50
77 | O=C(CBr)N(c1ccccc1)S(=O)(=O)c1cc(Cl)sc1Cl | 51.1 µM
78 | O=S(=O)(Nc1cccc(C(F)(F)F)c1)c1cc(Cl)c(Cl)cc1Cl | 55.1 µM
79 | Cc1ccc(NS(=O)(=O)c2cc(Cl)sc2Cl)cc1 | 40.2 µM
80 | Cc1ccc(Cl)cc1S(=O)(=O)Nc1ccc(Cl)c(Cl)c1 | 54 µM
81 | Cc1ccc(N(SC(Cl)(Cl)Cl)S(=O)(=O)c2cc(Cl)sc2Cl)cc1 | 24.9 µM
82 | O=C1Cc2c([nH]c3ccc([N+](=O)[O-])cc23)-c2ccccc2N1 [ALSTERPAULLONE] | 1.9 µM
83 | O=C1Nc2ccccc2/C1=C1/Nc2ccccc2C1=O [INDIRUBIN] | 6.9 µM
84 | OC(c1cc(C(F)(F)F)nc2c(C(F)(F)F)cccc12)C1CCCCN1 (stereo not drawn) [MEFLOQUINE] | 12.1 µM

system: MCF7; assay: Cytotoxicity against human MCF7 cells after 24 hrs by MTT assay; assay type: functional, cell-based; conditions: MCF7, 24 h

Row | Compound | IC50
85 | O=C(CBr)N(c1ccccc1)S(=O)(=O)c1cc(Cl)sc1Cl | 62 µM
86 | O=S(=O)(Nc1cccc(C(F)(F)F)c1)c1cc(Cl)c(Cl)cc1Cl | 63.8 µM
87 | Cc1ccc(NS(=O)(=O)c2cc(Cl)sc2Cl)cc1 | 66.1 µM
88 | Cc1ccc(Cl)cc1S(=O)(=O)Nc1ccc(Cl)c(Cl)c1 | 57.3 µM
89 | Cc1ccc(N(SC(Cl)(Cl)Cl)S(=O)(=O)c2cc(Cl)sc2Cl)cc1 | 30.1 µM
90 | O=C1Cc2c([nH]c3ccc([N+](=O)[O-])cc23)-c2ccccc2N1 [ALSTERPAULLONE] | 2.7 µM
91 | O=C1Nc2ccccc2/C1=C1/Nc2ccccc2C1=O [INDIRUBIN] | 6.7 µM
92 | OC(c1cc(C(F)(F)F)nc2c(C(F)(F)F)cccc12)C1CCCCN1 (stereo not drawn) [MEFLOQUINE] | 10.6 µM

system: not listed separately; assay: Therapeutic index, IC50 for Plasmodium falciparum W2 to IC50 for mice (Mus musculus) RAW264.7 cells; conditions: not given

Row | Compound | selectivity ratio
93 | OC(c1cc(C(F)(F)F)nc2c(C(F)(F)F)cccc12)C1CCCCN1 (stereo not drawn) [MEFLOQUINE] | 65
